# Experimental data published in US7592003B2, “Regulation of toll-like receptors on stem cells” (Oklahoma Medical Research Foundation, priority 2005, dated 2009).
# Tested on: LKS^+ cells
# Assay: Serum-free, stromal cell-free culture of sorted LKS+ cells, lineage markers by flow cytometry
# Format: cell-based, mouse
# Experimental: FIGS. 2A-D—Activation of TLRs through MyD88 on LKS^+ cells leads to myeloid cell differentiation. (FIG. 2A) Left, sorted LKS^+ cells (10,000 cells/well) from C57BL/6 or MyD88^−/− mice were cultured in the presence of FL and SCF with medium alone, LPS (10 μg/ml) or Pam3CSK4 (1 μg/ml). After 72 h in culture, cells were analyzed by flow cytometry for expression of lineage markers. Percentages indicate the frequencies of Lin^+ or Lin^− cells. Right, the bar graph depicts yields, i.e., numbers of Lin^+ cell recovered per input progenitor and the data represent mean values with standard deviations from triplicate cultures (*P<0.01). The results are representative of five independent experiments. […] After 72 or 96 h in culture, cells were analyzed by flow cytometry for Mac-1 and F4/80. […] After 72 h in culture, cells were analyzed by flow cytometry for expression of lineage markers. […]
# FIG. 11A-B—TLR stimulation causes a progression of Lin^+ cells from LKS^+ cells and soluble CD14 augments the acquisition of Mac-1 and F4/80. […] After 24 or 48 h in culture, cells were analyzed by flow cytometry for expression of lineage markers and percentages of Lin^+ or Lin^− cells are indicated. […] After 24, 48, or 72 h in culture, cells were analyzed by flow cytometry for expression of lineage markers. […] After 72 h in culture, cells were analyzed by flow cytometry for expression of Mac-1 and F4/80. […]
substance,measurement,setting,value
Pam3CSK4,Increase of absolute numbers of Lin+ cells,"LKS+ cells with FL and SCF, within 72 h",approximately eight-fold
same,Increase of Lin+ cells with cells from MyD88-deficient mice,"MyD88-deficient LKS+ cells, 72 h",did not occur
